Assay results: US7855310B2, “AH receptor antagonists” (SYMRISE GmbH & Co. KG, priority 2006, dated 2010)

Columns and labels:
[1] = Light stability test (solar simulator, HPLC quantification); format: physicochemical; conditions: wt. % based on sum E isomer + Z isomer; for Degradation after 2 h: solar simulator 40 W/m^2, 2 h; for Degradation after 4 h: solar simulator 40 W/m^2, 4 h
Procedure: 20 μl of a 1-3 wt. % solution of each of the test compounds of formula (I) in a low-volatility solvent (e.g. isopropyl myristate, miglyol or glycerol) are distributed uniformly over microscope slides using a pipette. These loaded slides are then irradiated in a solar simulator with an intensity of 40 W/m^2 (for 2 h or 4 h in each case).
When the irradiation has ended, the slides are each separately laid in a glass dish containing an organic solvent (methanol, isopropanol, etc.) and the organic substances present thereon are detached in an ultrasonic bath. The resulting solutions are each transferred to a 10 ml or 25 ml volumetric flask and made up to the calibration mark with solvent. Non-irradiated slides are treated likewise as references.
The samples (contents of the respective volumetric flasks) are evaluated via HPLC quantification. These values are compared with the non-irradiated references and the degradation rate during irradiation is reported in [wt. %] per unit time, based on the sum [E isomer+Z isomer].

[2] = target: T1, AhR (Homo sapiens, UniProt P35869); assay: Fluorescence microscopy of GFP-coupled AhR translocation in HaCaT cells transfected with pEGFP-AhR; format: cell-based; conditions: in the presence and absence of UVB light
T1 construct: endogenous in cells; host or cells: HaCaT keratinocytes
T1 sequence (P35869 11-848): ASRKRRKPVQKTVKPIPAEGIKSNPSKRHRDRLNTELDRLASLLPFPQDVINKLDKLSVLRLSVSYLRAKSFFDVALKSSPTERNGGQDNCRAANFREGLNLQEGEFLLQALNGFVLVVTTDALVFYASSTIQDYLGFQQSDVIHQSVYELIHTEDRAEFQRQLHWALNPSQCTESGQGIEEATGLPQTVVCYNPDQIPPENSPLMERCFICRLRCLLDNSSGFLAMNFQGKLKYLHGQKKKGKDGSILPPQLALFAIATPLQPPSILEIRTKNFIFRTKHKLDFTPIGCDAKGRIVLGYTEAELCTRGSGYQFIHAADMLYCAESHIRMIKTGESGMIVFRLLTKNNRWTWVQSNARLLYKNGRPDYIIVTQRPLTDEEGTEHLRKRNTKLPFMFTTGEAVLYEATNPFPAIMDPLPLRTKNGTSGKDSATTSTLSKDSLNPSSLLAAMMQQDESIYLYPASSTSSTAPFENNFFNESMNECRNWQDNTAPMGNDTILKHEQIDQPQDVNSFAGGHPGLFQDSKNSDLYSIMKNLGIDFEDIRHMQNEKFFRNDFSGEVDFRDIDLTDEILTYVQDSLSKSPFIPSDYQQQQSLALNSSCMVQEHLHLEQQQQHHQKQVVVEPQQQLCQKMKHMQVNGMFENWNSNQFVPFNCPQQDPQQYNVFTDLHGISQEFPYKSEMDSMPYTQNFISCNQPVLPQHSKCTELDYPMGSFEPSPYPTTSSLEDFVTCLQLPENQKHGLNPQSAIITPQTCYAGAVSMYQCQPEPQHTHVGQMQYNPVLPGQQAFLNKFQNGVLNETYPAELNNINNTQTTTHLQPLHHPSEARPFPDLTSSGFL
Excerpt: HaCaT keratinocytes were cultivated in DMEM containing 10% of foetal calf serum. The cells were irradiated with UVB in PBS (phosphate buffered saline). For irradiation with UVB we used a TL20W/12RS lamp, which contains four parallel tubes (Philips, Eindhoven, The Netherlands) and emits the bulk of its energy in the UVB range (290-320 nm). The emission peak of the lamp is at 310 nm. Control cells were subjected to the same treatment but were not irradiated. To inhibit the AhR, the cells were treated with the test substances 1 h prior to irradiation.
HaCaT cells were plated out on compartmentalized microscope slides at a cell density of 5×10^4 cells/compartment. Some were pretreated for 1 h with the test substances. After 24 h these were transfected with plasmid pEGFP-AhR by means of the FuGene 6 transfection reagent (Roche, Mannheim, Germany) according to the manufacturer's instructions. After a further 24 h the transfected cells were irradiated with 100 J/m^2 of UVB. After 40 min the cells were fixed for 10 min with 4% paraformaldehyde and washed with PBS. The slides were dried and covered with Vectashield mounting medium (Vector Laboratories, Burlingame, Calif., USA). The GFP-coupled AhR was visualized by means of a fluorescence microscope (Olympus, Hamburg, Germany) and photographed with a ColorView XS digital camera (Olympus).

Degradation after 2 h [1] | Degradation after 4 h [1] | Compound | translocation of the AhR into the cell nucleus [2]
77% | 84% | Oc1ccc(C=Cc2cc(O)cc(O)c2)cc1 (mixture of isomers) [Resveratrol (E/Z mixture), 3,5,4′-trihydroxystilbene, reference compound] | –
– | – | COc1cc(-c2cc(=O)c3ccccc3o2)ccc1[N+](=O)[O-] [3-methoxy-4-nitroflavone] | inhibited the translocation of the AhR into the cell nucleus
7% | 11% | CCCCOc1cc2c(cc1C)C(=O)/C(=C/c1ccc(OC)cc1)C2(C)C [(Id)] | –
95% | 100% | CC1=C(/C=C/C(C)=C/C=C/C(C)=C/C(=O)O)C(C)(C)CCC1 [Vitamin A acid, reference compound] | –
4% | 15% | COc1ccc(/C=C2/C(=O)c3ccccc3C2(C)C)cc1OC [(Ib)] | –
7% | 7% | COc1cc2c(cc1OC)C(C)(C)/C(=C\c1ccccc1)C2=O [Compound (Ia)] | –
